Legend:
bovine P450 11A1 [1] = system: bovine P450 11A1; set-up: method as in PMID 217878; conditions: equilibrium dialysis, bovine P450 11A1 ref 26; cited from earlier work
bovine P450 11A1 [2] = system: bovine P450 11A1; set-up: method as in PMID 7056749; conditions: bovine P450 11A1, within dead time of stopped-flow ref 12; cited from earlier work
human P450 11A1 [3] = biological target: T1, human P450 11A1 (Homo sapiens, UniProt P05108); test: Stopped-flow ketoconazole trap, koff and binding rate measurements; conditions: for koff: read-out: koff of P450-sterol complex, 2 μM P450 11A1 + 2 μM steroid mixed with 20 μM ketoconazole, 23 °C, without Adx
T1 construct: M A S T R S P R P F N E I P S P G D N; Met-Ala (N-terminal start residues in place of the transit peptide and Ile40) (N); made in house; host or cells: E. coli C41(DE3) with GroES/GroEL, vector pET23C(+)
T1 sequence (P05108 41-521 limits assumed): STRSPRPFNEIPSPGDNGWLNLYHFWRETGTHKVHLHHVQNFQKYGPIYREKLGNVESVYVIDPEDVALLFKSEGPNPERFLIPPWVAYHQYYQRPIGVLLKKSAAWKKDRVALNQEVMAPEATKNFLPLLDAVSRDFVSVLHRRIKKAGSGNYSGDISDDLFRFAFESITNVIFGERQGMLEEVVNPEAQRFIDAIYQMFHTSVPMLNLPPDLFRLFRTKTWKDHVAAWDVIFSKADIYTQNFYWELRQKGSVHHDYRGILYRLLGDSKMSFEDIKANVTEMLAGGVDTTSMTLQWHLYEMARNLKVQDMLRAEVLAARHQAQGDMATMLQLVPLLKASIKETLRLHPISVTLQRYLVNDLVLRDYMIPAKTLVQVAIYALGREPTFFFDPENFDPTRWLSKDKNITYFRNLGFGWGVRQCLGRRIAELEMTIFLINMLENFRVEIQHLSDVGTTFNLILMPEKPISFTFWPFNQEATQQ
Protocol: Interaction of the azole nitrogen atom with the P450 heme produces a bathochromic (“type II”) spectral shift (to ∼430 nm)—an inverse effect of the binding of substrate.
Measurement of kon rate(s) was not performed because the sterols are delivered in a solution of HPCD, from which the dissociation rate is not known.
Determinations of koff rates were performed as previously described ([33]).

P450 11A1 (CYP11A1) = biological target: T2, P450 11A1 (CYP11A1) (Homo sapiens, UniProt P05108); test: Kinetic isotope effect assay, disappearance of d0- and d3-cholesterol under single-turnover conditions; format: biochemical; conditions: human, pH 7.4; 5 μM P450, 5 μM sterol, low Adx single-turnover; read-out: sterol half-life (t1/2) (converted)
T2 construct: M A S T R S P R P F N E I P S P G D N; Met-Ala (N-terminal start residues in place of the transit peptide and Ile40) (N); made in house; host or cells: E. coli (P450 11A1 in C41(DE3); Adx and AdR in E. coli)
T2 sequence (P05108 41-521 limits assumed): T1 sequence (P05108 41-521 limits assumed)
T2 sequence (P00257 59-186 partner): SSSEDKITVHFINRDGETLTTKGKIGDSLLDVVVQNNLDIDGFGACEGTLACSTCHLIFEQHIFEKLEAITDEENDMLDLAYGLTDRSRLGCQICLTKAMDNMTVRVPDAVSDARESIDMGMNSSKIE
Protocol: (§1) P450 11A1 incubations were performed under (low Adx) single-turnover conditions (5 μM P450, 5 μM cholesterol; see Experimental procedures) with d0- (authentic, unlabeled) and d3-cholesterol, and the disappearance of each was monitored by LC-atmospheric pressure chemical ionization-MS (m/z 369.3516 and 372.3705, respectively). In theory, if C-H bond breaking were rate-limiting in the initial hydroxylation then the rate of d3-cholesterol consumption would be slower relative to the d0 compound due to the increased strength of a C-D bond.
The kinetic isotope experiment was designed similarly to the benchtop experiment described above, but with some modifications. P450 11A1 (5 μM) was reconstituted with the redox partners AdR (10 μM) and Adx (5 μM) on ice (10 min) prior to dilution in potassium Hepes (50 mM, pH 7.4) and H2O and addition of d3-cholesterol substrate (5 μM). […]
Samples (held at 4 °C) were injected (10 μl) using a Waters Acquity UPLC system on a Acquity BEH octadecylsilane (C18) 2.1 mm × 50 mm (1.7 μm) UPLC column (held at 25 °C) with a flow rate of 0.5 ml min^−1 using an isocratic mobile phase of CH3CN (only). The column eluate was subjected to atmospheric pressure chemical ionization and analyzed using a Thermo Fisher Scientific LTQ XL Orbitrap mass spectrometer instrument operating in positive mode, scanning from m/z 100 to 500, with a resolution setting of 120,000. […]

human P450 11A1 [4] = biological target: T3, human P450 11A1 (Homo sapiens, UniProt P05108); test: as above; format: biochemical; set-up: M A S T R S P R P F N E I P S P G D N; Met-Ala (N-terminal start residues in place of the transit peptide and Ile40) (N); made in house; host or cells: E. coli (P450 11A1 in C41(DE3); Adx and AdR in E. coli); conditions: 5 μM P450, 5 μM sterol, exponential decay fit
T3 sequence (P05108 41-521 limits assumed): T1 sequence (P05108 41-521 limits assumed)
T3 sequence (P00257 59-186 partner): T2 sequence (P00257 59-186 partner)
Protocol: as §1
The kinetic isotope experiment was designed similarly to the benchtop experiment described above, but with some modifications. P450 11A1 (5 μM) was reconstituted with the redox partners AdR (10 μM) and Adx (5 μM) on ice (10 min) prior to dilution in potassium Hepes (50 mM, pH 7.4) and H2O and addition of d3-cholesterol substrate (5 μM). The mixture was preincubated (5 min) prior to initiation with NADPH (2.5 mM, from 25 mM in potassium Hepes (50 mM, pH 7.4)) thus bringing all components to their desired final concentrations. After completing the desired incubation time, an aliquot (500 μl) was removed from the incubation and added to vials containing CH2Cl2 (5 ml) and the vials were mixed with a vortex device and placed on ice. The quenched reactions were centrifuged (10^3g, 5 min, 23 °C) to separate layers, and the organic (bottom) layers were removed (4 ml) and transferred to fresh glass vials. The extraction process was repeated and the two extracts (2 × 4 ml) from each sample were combined to maximize product recovery. Samples (8 ml) were brought to dryness under a stream of nitrogen, and the dried residues were dissolved in CH3OH (25 μl) and transferred to autosampler vials for analysis.
Samples (held at 4 °C) were injected (10 μl) using a Waters Acquity UPLC system on a Acquity BEH octadecylsilane (C18) 2.1 mm × 50 mm (1.7 μm) UPLC column (held at 25 °C) with a flow rate of 0.5 ml min^−1 using an isocratic mobile phase of CH3CN (only). The column eluate was subjected to atmospheric pressure chemical ionization and analyzed using a Thermo Fisher Scientific LTQ XL Orbitrap mass spectrometer instrument operating in positive mode, scanning from m/z 100 to 500, with a resolution setting of 120,000. Data were processed using Xcalibur QualBrowser (Thermo Fisher Scientific) software (version 2.0.7; https://www.thermofishcer.com/order/catalog/product/OPTON).

human P450 11A1 [5] = system: human P450 11A1; set-up: method as in PMID 33271253; conditions: surface plasmon resonance ref 46; cited from earlier work

Compound: CC(C)CC[C@@H](O)[C@](C)(O)[C@H]1CC[C@H]2[C@@H]3CC=C4C[C@@H](O)CC[C@]4(C)[C@H]3CC[C@]12C [20R,22R-(OH)2 Chol, (20R,22R)-Cholest-5-ene-3β,20,22-triol]
- Kd (bovine P450 11A1 [1]): 81 nM
- rates of binding and dissociation (bovine P450 11A1 [2]): > 300 s⁻¹

Compound: CC(C)CC[C@@H](O)[C@@H](C)[C@H]1CC[C@H]2[C@@H]3CC=C4C[C@@H](O)CC[C@]4(C)[C@H]3CC[C@]12C [22R-OH Chol, 22R-hydroxycholesterol]
- Kd (bovine P450 11A1 [1]): 4.9 nM
- koff of P450-sterol complex (human P450 11A1 [3]; 2 μM P450 11A1 + 2 μM steroid mixed with 20 μM ketoconazole, 23 °C, without Adx): 0.044 ± 0.001 s⁻¹
- koff (human P450 11A1 [3]): 0.04 s⁻¹

Compound: CC(C)CCC[C@@H](C)[C@H]1CC[C@H]2[C@@H]3CC=C4C[C@@H](O)CC[C@]4(C)[C@H]3CC[C@]12C [Cholesterol]
- half-life at 5 μM (P450 11A1 (CYP11A1)): 20 s
- rate of disappearance (human P450 11A1 [4]): 0.035 s⁻¹
- decrease in Kd of P450 11A1-Adx complex in the presence of cholesterol (human P450 11A1 [5]): ~3 fold
- observed binding rate (human P450 11A1 [3]; 20 μM final concentration, in HPCD): 0.05 s⁻¹
- apparent kon slower than kon of ketoconazole to unliganded P450 (human P450 11A1 [3]; in the presence of HPCD): > 200 fold
- kon (human P450 11A1 [3]; read-out: apparent kon): 2500 M⁻¹ s⁻¹
- koff (human P450 11A1 [3]): 0.24 ± 0.01 s⁻¹
- rates of binding and dissociation (bovine P450 11A1 [2]): > 300 s⁻¹

— PMC10716780, “The multistep oxidation of cholesterol to pregnenolone by human cytochrome P450 11A1 is highly processive” (The Journal of Biological Chemistry, 2023)
